Test results published in patent US12286435B2, “Compound having benzo seven-membered ring structure, preparation method therefor, and use thereof” (BIONNA (BEIJING) MEDICAL TECHNOLOGY CO., LTD., priority 2019, dated 2025).
Where “and” joins values, the source holds several entries; their conditions need not be identical. Identical values can stand only once.

How the values were obtained:
BRD4 BD2 protein = BRD4 BD2 protein (Homo sapiens (Human), UniProt O60885); test: Fluorescence polarization binding affinity (Ki) with BRD4 BD2 protein; settings: fluorescence polarization; Ki calculated from IC50
BRD4 BD1 protein = BRD4 BD1 protein (Homo sapiens (Human), UniProt O60885); test: Fluorescence polarization binding affinity (Ki) with BRD4 BD1 protein; settings: fluorescence polarization; Ki calculated from IC50
[1] = test system: multiple myeloma MM.1S cell line; test: Cell viability (CCK-8), multiple myeloma MM.1S; type: cell-based; settings: Homo sapiens, MM1.S, 96 h, MM.1S cells, 4 days, CCK-8, 50% inhibition of cell growth
Protocol: 3. Determination of cell viability of the compound
The sample to be tested was dissolved with 100% dimethyl sulfoxide to prepare a 20 mM stock solution of the compound, which was diluted with 100% dimethyl sulfoxide to the highest compound concentration required for the experiment (2.5 mM).
First, 145 uL of a complete cell culture medium was added to wells B1-G1 of a 96-well flat-bottomed tansparent cell culture plate, and 100 uL of the complete medium was added to wells B2-G12, respectively. Then, 5 uL of the 2.5 mM solution of the compound was added to wells B1-D1 and E1-G1 respectively, and then diluted gradiently by 3-folds to B12-D12 and E12-G12 in sequence. Finally, 50 uL of the solution of the cells to be tested was added to each well, with about 3000-5000 cells per well, and a total volume of 150 uL per well.
In the experiment, in addition to the tested compound, two other control groups were set up: 1) a control group adding the cells and the complete medium, but without adding the compound; 2) a control group adding the complete medium only, without adding the cells and the compound. The 96-well plate was placed in a 37° C. cell culture incubator containing 5% carbon dioxide for 4 days, added with 15 uL of a CCK-8 reagent per well, and then incubated at 37° C. for 2-4 hours. The 96-well plate was read on a TECAN microplate reader, and the absorbance value at 450 nm wavelength was taken.
The effect of different concentrations of the compound on cell viability was calculated by the following equation: [absorption value of the experimental group−absorption value of pure cell culture medium without the cells or the compound]/[absorption value of the control group with the tumor cells but no testing compound−absorption value of pure cell culture medium without the cell or the compound]×100%.
The above data were precessed by software, and the IC50 value was the concentration of the compound corresponding to the 50% inhibition rate of cell growth.
Based on the above test method of the compound on cell viability, a variety of […] cancer cell lines were tested, using multiple myeloma MM.1S, breast cancer MDA-MB-231 and leukemia MV4-11 cell lines as exemples. Using this test method, the IC50 values of partial compounds in the examples of the present invention measured in multiple myeloma MM.1S, breast cancer MDA-MB-231 cell lines and leukemia MV4-11 cell lines were shown in Table 2.

Row | SMILES | Ki (BRD4 BD2 protein) | Ki (BRD4 BD1 protein) | IC50 [1] [nM]
1 | Cc1nnn2c1-c1ccc(-c3cnn(C)c3)cc1C(Nc1cccc3cccnc13)CC2 (stereo not drawn) [LB91, 1-methyl-9-(1-methyl-1H-pyrazol-4-yl)-N-(quinolin-8-yl)-6,7-dihydro-5H-benzo[c][1,2,3]triazolo[1,5-a]azepin-7-amine] | 11.6 nM | 81.4 nM | 13.4
2 | Cc1nnn2c1-c1ccc(-c3ccncc3)cc1C(Nc1ccc(Cl)cc1)CC2 (stereo not drawn) [RA188, N-(4-chlorophenyl)-1-methyl-9-(pyridin-4-yl)-6,7-dihydro-5H-benzo[c][1,2,3]triazolo[1,5-a]azepin-7-amine] | 17.1 nM | 73.7 nM | 8.54
3 | CNC(=O)c1ccc(NC2CCn3nnc(C)c3-c3ccc(-c4cnn(C)c4)cc32)cc1 (stereo not drawn) [LB128] | 22.8 nM | 89.3 nM | 153
4 | COc1ccc2c(c1)C(Nc1ccc(C)cc1)CCc1onc(C)c1-2 (stereo not drawn) [BB188, 8-methoxy-1-methyl-N-(p-tolyl)-5,6-dihydro-4H-benzo[6,7]cyclohepta[1,2-d]isoxazol-6-amine] | 41.4 nM | 94.2 nM | 805
5 | Cc1nnn2c1-c1ccc(-c3ccnc4[nH]ccc34)cc1C(Nc1ccc(Cl)cc1)CC2 (stereo not drawn) [RB31, N-(4-chlorophenyl)-1-methyl-9-(1H-pyrrolo[2,3-b]pyridin-4-yl)-6,7-dihydro-5H-benzo[c][1,2,3]triazolo[1,5-a]azepin-7-amine] | 24.7 nM | 33.6 nM | 676
6 | Cc1nnn2c1-c1ccc(-c3cnn(C)c3)cc1C(Nc1ccc(C(O)(C(F)(F)F)C(F)(F)F)cc1)CC2 (stereo not drawn) [LB83, 1,1,1,3,3,3-hexafluoro-2-(4-((1-methyl-9-(1-methyl-1H-pyrazol-4-yl)-6,7-dihydro-5H-Benzo[c][1,2,3]triazolo[1,5-a]azepin-7-yl)amino)phenyl)propan-2-ol] | 38.4 nM | 180 nM | 250
7 | COC(=O)c1cccc(NC2CCn3nnc(C)c3-c3ccc(-c4cnn(C)c4)cc32)c1 (stereo not drawn) [LB92, methyl 3-((1-methyl-9-(1-methyl-1H-pyrazol-4-yl)-6,7-dihydro-5H-benzo[c][1,2,3]triazolo[1,5-a]azepin-7-yl)amino)benzoate] | 17.9 nM | 133 nM | 121
8 | Cc1nnn2c1-c1ccc(-c3cnn(C)c3)cc1C(Nc1ccccc1OCCO)CC2 (stereo not drawn) [LB90, 2-(2-((1-methyl-9-(1-methyl-1H-pyrazol-4-yl)-6,7-dihydro-5H-benzo[c][1,2,3]triazolo[1,5-a]azepin-7-yl)amino)phenoxy)ethanol] | 16.5 nM | 134 nM | 51.9
9 | Cc1nnn2c1-c1ccc(-c3ccc(NC(=O)OC(C)(C)C)cc3)cc1C(Nc1ccc(Cl)cc1)CC2 (stereo not drawn) [RA194, tert-butyl (4-(7-((4-chlorophenyl)amino)-1-methyl-6,7-dihydro-5H-benzo[c][1,2,3]triazolo[1,5-a]azepin-9-yl)phenyl)carbamate] | 24.1 nM | 29.1 nM | 329
10 | Cc1nnn2c1-c1ccc(-c3cnn(C)c3)cc1C(Nc1ccccc1O)CC2 (stereo not drawn) [LB170, 2-((1-methyl-9-(1-methyl-1H-pyrazol-4-yl)-6,7-dihydro-5H-benzo[c][1,2,3]triazolo[1,5-a]azepin-7-yl)amino)phenol] | 4.78 nM | 74.8 nM | 152
11 | CC(=O)N1CC=C(c2ccc3c(c2)C(Nc2ccc(F)c(Cl)c2)CCn2nnc(C)c2-3)CC1 (stereo not drawn) [LD77, 1-(4-(7-((3-chloro-4-fluorophenyl)amino)-1-methyl-6,7-dihydro-5H-benzo[c][1,2,3]triazolo[1,5-a]azepin-9-yl)-3,6-dihydropyridin-1(2H)-yl)ethan-1-one] | 3.97 nM and 3.16 nM | 81.7 nM | 1.86
12 | Cc1nnn2c1-c1ccc(-c3cnn(C)c3)cc1C(Oc1ccc(F)cc1F)CC2 (stereo not drawn) [BE95, 7-(2,4-difluorophenoxy)-1-methyl-9-(1-methyl-1H-pyrazol-4-yl)-6,7-dihydro-5H-benzo[c][1,2,3]triazolo[1,5-a]azepine] | 86.9 nM | 577 nM | 3190
13 | Cc1nnn2c1-c1ccc(-c3cnn(C)c3)cc1C(Nc1ccc3ncccc3c1)CC2 (stereo not drawn) [LB88, 1-methyl-9-(1-methyl-1H-pyrazol-4-yl)-N-(quinolin-6-yl)-6,7-dihydro-5H-benzo[c][1,2,3]triazolo[1,5-a]azepin-7-amine] | 15.1 nM | 137 nM | 24.3
14 | Cc1nnn2c1-c1ccc(-c3cnn(C)c3)cc1C(Nc1ccccc1CN(C)C)CC2 (stereo not drawn) [LC29, N-(2-((dimethylamino)methyl)phenyl)-1-methyl-9-(1-methyl-1H-pyrazol-4-yl)-6,7-dihydro-5H-benzo[c][1,2,3]triazolo[1,5-a]azepin-7-amine] | 7.6 nM | 19.4 nM | 12.2
15 | Cn1cc(-c2ccc3c(c2)C(Nc2ccc(Cl)cc2)CCn2nnc(C4CC4)c2-3)cn1 (stereo not drawn) [BE44, N-(4-chlorophenyl)-1-cyclopropyl-9-(1-methyl-1H-pyrazol-4-yl)-6,7-dihydro-5H-benzo[c][1,2,3]triazolo[1,5-a]azepin-7-amine] | 48.1 nM | 173 nM | 989
16 | Cc1nnn2c1-c1ccc(-c3cnn(C)c3)cc1C(Nc1ccc(CCN(C)C)cc1)CC2 (stereo not drawn) [LB139, N-(4-(2-(dimethylamino)ethyl)phenyl)-1-methyl-9-(1-methyl-1H-pyrazol-4-yl)-6,7-dihydro-5H-benzo[c][1,2,3]triazolo[1,5-a]azepin-7-amine] | 48.3 nM | 124 nM | 120
17 | COc1ccc2c(c1)C(Nc1ccccc1)CCc1onc(C)c1-2 (stereo not drawn) [FA03, 8-methoxy-1-methyl-N-phenyl-5,6-dihydro-4H-benzo[6,7]cyclohepta[1,2-d]isoxazol-6-amine] | 56.3 nM | 206 nM | 502
18 | Cc1nnn2c1-c1ccc(-c3cnn(C)c3)cc1C(Nc1cccc(CC(=O)O)c1)CC2 (stereo not drawn) [LB62, 2-(3-((1-methyl-9-(1-methyl-1H-pyrazol-4-yl)-6,7-dihydro-5H-benzo[c][1,2,3]triazolo[1,5-a]azepin-7-yl)amino)phenyl) acetic acid] | 13 nM | 229 nM | 14000
19 | Cc1nnn2c1-c1ccc(-c3cnn(C)c3)cc1C(Nc1cccc3ncccc13)CC2 (stereo not drawn) [LB86, 1-methyl-9-(1-methyl-1H-pyrazol-4-yl)-N-(quinolin-5-yl)-6,7-dihydro-5H-benzo[c][1,2,3]triazolo[1,5-a]azepin-7-amine] | 14 nM | 56 nM | 45.1
20 | COc1cccc(NC2CCn3nnc(C)c3-c3ccc(C4=CCN(C(C)C)CC4)cc32)c1 (stereo not drawn) [BH37, 9-(1-isopropyl-1,2,3,6-tetrahydropyridin-4-yl)-N-(3-methoxyphenyl)-1-methyl-6,7-dihydro-5H-benzo[c][1,2,3]triazolo[1,5-a]azepin-7-amine 2,2,2-trifluoroacetate] | 61.9 nM and 28.3 nM | 1880 nM and 1560 nM | 352
21 | Cc1nnn2c1-c1ccc(-c3cnn(C)c3)cc1C(Nc1ccc(CCO)cc1)CC2 (stereo not drawn) [LB24, 2-(4-((1-methyl-9-(1-methyl-1H-pyrazol-4-yl)-6,7-dihydro-5H-benzo[c][1,2,3]triazolo[1,5-a]azepin-7-yl)amino)phenyl)ethan-1-ol] | 22.4 nM | 64.5 nM | 51.7
22 | Cc1nnn2c1-c1ccc(-c3cnn(C)c3)cc1C(Nc1ccc(O)cc1)CC2 (stereo not drawn) [LB143, 4-((1-methyl-9-(1-methyl-1H-pyrazol-4-yl)-6,7-dihydro-5H-benzo[c][1,2,3]triazolo[1,5-a]azepin-7-yl)amino)phenol] | 9.61 nM | 78.3 nM | 118
23 | Cc1noc2c1-c1ccc(-c3cn[nH]c3)cc1C(Nc1ccc(Cl)cc1)CC2 (stereo not drawn) [LA108, N-(4-chlorophenyl)-1-methyl-8-(1H-pyrazol-4-yl)-5,6-dihydro-4H-benzo[6,7]cyclohepta[1,2-d]isoxazol-6-amine] | 31.7 nM | 80.5 nM | 30.2
24 | Cc1nnn2c1-c1ccc(-c3cnn(C)c3)cc1C(Nc1ccnn1C)CC2 (stereo not drawn) [BE118, 1-methyl-9-(1-methyl-1H-pyrazol-4-yl)-N-(1-methyl-1H-pyrazol-5-yl)-6,7-dihydro-5H-benzo[c][1,2,3] triazolo[1,5-a]azepin-7-amine] | 23.6 nM | 272 nM | 604
25 | COc1ccc(NC2CCc3onc(C)c3-c3ccc(OC)cc32)cc1 (stereo not drawn) [FA01, 8-methoxy-N-(4-methoxyphenyl)-1-methyl-5,6-dihydro-4H-benzo[6,7]cyclohepta[1,2-d]isoxazol-6-amine] | 105 nM | 169 nM | 559
